From PMC9738179, “New Nucleic Base-Tethered Trithiolato-Bridged Dinuclear Ruthenium(II)-Arene Compounds: Synthesis and Antiparasitic Activity” (Molecules, 2022)
Values joined by “and” are separate entries in the source; they are usually repeats but may differ in a detail not shown here. Equal entries are not always repeated. “Also recorded” adds a separate entry of the source. Where two headings read alike, the source gives them in different places.

Tests used:
[1] = test system: human foreskin fibroblasts (HFF); settings: cited from earlier work
[2] = test system: T. gondii β-gal tachyzoites; parameters: method as in PMID 32347622, doi:10.3390/inorganics9080059, PMID 34144354; settings: previously reported, ref [93],[96],[111], cited from earlier work
[3] = Stability in DMSO-d6 by 1H NMR (5 min vs 100 days); type: physicochemical; settings: 25 °C, 5 min and 100 days after sample preparation, stored at 0-5 °C in the dark
Description: For the biological activity evaluation, 1 mM stock solutions of all compounds were prepared in dimethylsulfoxide (DMSO).
The conjugates are well soluble in DMSO, solvent used to prepare standard solutions for biological […]
To assess their stability, compounds 4, 24, 28, 33 and 39 were dissolved in DMSO-d6, and two 1H NMR spectra were recorded at 25°C 5 min and at least 100 days after sample preparation (Figures S1 and S2).
Between the two experiments, the samples were stored at 0°C. For all compounds, there are no significant changes between the spectrum recorded after 5 min and the spectrum recorded after at least […]
further biological tests.
Figure S1. […]

[4] = test system: T. gondii β-gal tachyzoites; settings: cited from earlier work
[5] = test system: T. gondii β-gal tachyzoites; test: Primary screening: T. gondii β-gal proliferation in HFF monolayers at 0.1 and 1 µM (CPRG readout); type: cell-based, Toxoplasma gondii; settings: tachyzoites cultured in HFF, 72 h, relative to DMSO control
Description: (§1) The screening cascade for the compounds was described in former studies. All compounds were prepared as 1 mM stock solutions from powder, in dimethyl sulfoxide (DMSO, Sigma, St. Louis, MO, USA). For in vitro activity and cytotoxicity assays, HFF were seeded at 5 × 10^3/well and allowed to grow to confluence in phenol-red free culture medium at 37 °C and 5% CO2. T. gondii tachyzoites were released from host cells, and HFF monolayers were infected with freshly isolated parasites (1 × 10^3/well), and compounds were added concomitantly with infection.
In the primary screening, HFF monolayers infected with T. gondii β-gal were treated with 0.1 and 1 µM of each compound, or the corresponding concentration of DMSO (0.01 or 0.1%, respectively) as controls and were incubated for 72 h at 37 °C/5% CO2 as previously described.
(§2) To measure the activity of the tested compound on T. gondii β-gal parasites, after a period of 72 h of culture at 37 °C/5% CO2, the culture medium was aspirated, and cells were permeabilized by adding 90 μL PBS (phosphate buffered saline) with 0.05% Triton X-100. Next, 10 μL of 5 mM chlorophenolred-β-D-galactopyranoside (CPRG; Roche Diagnostics, Rotkreuz, Switzerland, substrate for the β-galactosidase) in PBS were added. Release of chlorophenol red was measured at 570 nm using an EnSpire® multimode plate reader (PerkinElmer, Inc., Waltham, MA, USA). A 100% proliferation of T. gondii β-gal was assigned to control parasites treated only with DMSO. For the primary screening at 0.1 and 1 μM, the activity was measured as the release of chlorophenol red over time and was calculated as percentage from the respective DMSO treated control, which represented 100% of T. gondii β-gal growth.

[6] = Cytotoxicity in non-infected HFF by alamarBlue assay; type: cell-based, human; settings: human, non-infected HFF, 72 h, relative to DMSO control, triplicate
Description: as §1
(§3) Cytotoxicity assays using uninfected confluent HFF host cells were performed by the alamarBlue assay as previously reported. Confluent HFF monolayers in 96 well-plates were exposed to 0.1, 1, and 2.5 μM of each compound. Non-treated HFF as well as DMSO controls (0.01%, 0.1%, and 0.25%) were included. After 72 h of incubation at 37 °C/5% CO2, the medium was removed, and the plates were washed once with PBS. Resazurin suspended in PBS to a final concentration of 0.01 g/L was added to each well (200 μL/well). Fluorescence was measured at excitation wavelength 530 nm and emission wavelength […] using an EnSpire® multimode plate reader (PerkinElmer, Inc, Waltham, MA, USA). The cytotoxicity values were calculated as percentage of the respective DMSO control, which represented 100% of HFF viability.

[7] = test system: T. gondii β-gal tachyzoites; test: Dose-response study (IC50) against T. gondii β-gal tachyzoites; type: cell-based, Toxoplasma gondii; settings: 8 serial concentrations 0.007-1 µM, 72 h
Description: as §1
For the dose-response study (IC50 values), measurements for T. gondii β-gal were performed. The selected compounds were added concomitantly with infection in 8 serial concentrations 0.007, 0.01, 0.03, 0.06, 0.12, 0.25, 0.5, and 1 μM.
as §2
For the IC50 assays, the activity measured as the release of chlorophenol red over time was proportional to the number of live parasites down to 50 per well as determined in pilot assays. IC50 values were calculated after the logit-log-transformation of relative growth and subsequent regression analysis. All calculations were performed using the corresponding software tool contained in the Excel software package (Microsoft, Redmond, WA, USA).

[8] = test system: human foreskin fibroblasts (HFF); test: Cytotoxicity in non-infected HFF by alamarBlue assay; type: cell-based
Description: as §1, §3

[9] = 0.1 µM, non-infected HFF, previously reported, ref [93],[96],[111]
[10] = 1 µM, non-infected HFF, previously reported, ref [93],[96],[111]
[11] = 0.1 µM, non-infected HFF, 72 h, relative to DMSO control, triplicate
[12] = 1 µM, non-infected HFF, 72 h, relative to DMSO control, triplicate
[13] = 2.5 µM, control 0.25% DMSO = 100%, six replicates

Compound	Stability in DMSO-d6 (1H NMR spectra) [3]	T. gondii β-gal Growth (%) ([5]; 0.1 µM)	T. gondii β-gal Growth (%) ([5]; 1 µM)	viability at 72 h, 0.1 µM [6] [%]	viability at 72 h, 1 µM [6] [%]	HFF Viability (%) [8, 11] [%]	also measured
CC(C)(C)c1ccc(C[S+]2[Ru-]3[S+](Cc4ccc(C(C)(C)C)cc4)[Ru-]2[S+]3c2ccc(CC(=O)O)cc2)cc1.Cc1ccc(C(C)C)cc1.Cc1ccc(C(C)C)cc1.[Cl-] (stereo not drawn) [Compound 3]							HFF Viability (%) [1, 9]: 91 ± 4%; HFF Viability (%) [1, 10]: 73 ± 1%; HFF viability at 2.5 µM ([1]; 2.5 µM, intermediates previously reported, not in Table 2, ref [93],[111]): did not affect HFF viability; T. gondii β-gal Growth (%) ([2]; 0.1 µM): 114 ± 2%; T. gondii β-gal Growth (%) ([2]; 1 µM): 110 ± 2%
CC(C)(C)c1ccc(C[S+]2[Ru-]3[S+](Cc4ccc(C(C)(C)C)cc4)[Ru-]2[S+]3c2ccccc2CO)cc1.Cc1ccc(C(C)C)cc1.Cc1ccc(C(C)C)cc1.[Cl-] (stereo not drawn) [Compound 4]	very good stability; also recorded: no modifications						HFF Viability (%) [1, 9]: 80 ± 1%; HFF Viability (%) [1, 10]: 69 ± 6%; HFF Viability (%) ([1]; 2.5 µM, compound reported earlier, ref [96]): 4%; IC50 ([4]; compound reported earlier, ref [96]): 0.038 µM; T. gondii β-gal Growth (%) ([2]; 0.1 µM): 2 ± 0%; T. gondii β-gal Growth (%) ([2]; 1 µM): 1 ± 0%
C#CCNC(=O)Cc1ccc([S+]2[Ru-]3[S+](Cc4ccc(C(C)(C)C)cc4)[Ru-]2[S+]3Cc2ccc(C(C)(C)C)cc2)cc1.Cc1ccc(C(C)C)cc1.Cc1ccc(C(C)C)cc1.[Cl-] (stereo not drawn) [Compound 8]							T. gondii β-gal Growth (%) ([2]; 0.1 µM): 52 ± 13%; T. gondii β-gal Growth (%) ([2]; 1 µM): 3 ± 1%
C#CCn1ccc(=O)[nH]c1=O.C#CCn1ccc(=O)[nH]c1=O [Compound 15]		109 ± 5	83 ± 0	107 ± 2	96 ± 2		
C#CCn1cc(C)c(=O)[nH]c1=O.C#CCn1cc(C)c(=O)[nH]c1=O [Compound 16]		96 ± 8	95 ± 6	104 ± 2	103 ± 3		
C#CCn1ccc(N)nc1=O.C#CCn1ccc(N)nc1=O [Compound 17]		111 ± 5	90 ± 7	96 ± 1	93 ± 1		
C#CCn1cnc2c(N)ncnc21.C#CCn1cnc2c(N)ncnc21 [Compound 18]		117 ± 4	91 ± 6	96 ± 2	89 ± 3		
Cc1ccc(C(C)C)cc1.Cc1ccc(C(C)C)cc1.Cc1cn(Cc2cn(-c3ccc([S]4[Ru]5[S](Cc6ccc(C(C)(C)C)cc6)[Ru+]4[S]5Cc4ccc(C(C)(C)C)cc4)cc3)nn2)c(=O)[nH]c1=O.[Cl-] [Compound 24]	very good stability; also recorded: no modifications	56 ± 15				98 ± 10	IC50 [7]: 0.357 µM; HFF Viability (%) [8, 12]: 96 ± 4%; HFF Viability (%) [8, 13]: 85%
[N-]=[N+]=NCc1cc(=O)[nH]c(=O)[nH]1 [Compound 27, 6-(azidomethyl)uracil]		101 ± 5	99 ± 11	98 ± 5	102 ± 3		
NC(=O)CCCc1cn(Cc2cc(=O)[nH]c(=O)[nH]2)nn1 [Compound 28]	very good stability; also recorded: no modifications					101 ± 1	
[N-]=[N+]=NCCn1cnc2c(N)ncnc21 [Compound 32]		103 ± 8	94 ± 2	104 ± 2	103 ± 3		
CNc1cn(CCn2cnc3c(N)ncnc32)nn1 [Compound 33]	very good stability; also recorded: no modifications	94 ± 11	83 ± 11			84 ± 6	HFF Viability (%) [8, 12]: 71 ± 3%
CC(C)(C)c1ccc(C[S]2[Ru]3[S](Cc4ccc(C(C)(C)C)cc4)[Ru+]2[S]3c2ccc(-n3cc(-c4ccccc4)nn3)cc2)cc1.Cc1ccc(C(C)C)cc1.Cc1ccc(C(C)C)cc1.[Cl-] [Compound 37]		13 ± 1	0 ± 0			99 ± 1	IC50 [7]: 0.096 µM; HFF Viability (%) [8, 12]: 71 ± 0%; HFF Viability (%) [8, 13]: highly toxic and 17%
CC(C)(C)c1ccc(C[S]2[Ru]3[S](Cc4ccc(C(C)(C)C)cc4)[Ru+]2[S]3c2ccc(-n3cc(CO)nn3)cc2)cc1.Cc1ccc(C(C)C)cc1.Cc1ccc(C(C)C)cc1.[Cl-] [Compound 38]		42 ± 2	0 ± 0				IC50 [7]: 0.128 µM; HFF Viability (%) ([8]; 0.1 µM): 104 ± 1%; HFF Viability (%) ([8]; 1 µM): 71 ± 1%; HFF Viability (%) ([8]; 2.5 µM): 59%
CC(C)(C)c1ccc(C[S]2[Ru]3[S](Cc4ccc(C(C)(C)C)cc4)[Ru+]2[S]3c2ccc(-n3cc(-c4ccccn4)nn3)cc2)cc1.Cc1ccc(C(C)C)cc1.Cc1ccc(C(C)C)cc1.[Cl-] [Compound 39]	very good stability; also recorded: no modifications	14 ± 1	0 ± 0			94 ± 2	IC50 [7]: 0.075 µM; HFF Viability (%) [8, 12]: 90 ± 1%; HFF Viability (%) [8, 13]: highly toxic and 1%
CCc1nc(N)nc(N)c1-c1ccc(Cl)cc1 [Pyrimethamine, reference compound]							HFF Viability (%) ([1]; 2.5 µM, reference compound, ref [93]): 99%; IC50 ([4]; reference compound, ref [93]): 0.326 µM
